Assay results taken from patent US20250326866A1, “TRANSFERRIN RECEPTOR TARGETING PEPTIDE OLIGONUCLEOTIDE COMPLEXES AND METHODS OF USE THEREOF” (Blaze Bioscience, Inc., priority 2021, published 2025).

Tested on: CRE-driven luciferase
Assay: CRE-luciferase reporter mice, in vivo brain luminescence
Details: 4 hours after IP 1.68 mg rolipram and 0.84 mg forskolin given together
From the text: Transgenic mice expressing firefly luciferase under the control of a cyclic AMP response element (CRE) can be used. Under conditions of elevated cyclic AMP (cAMP) or other mechanisms that activate the transcription factor CRE Binding Protein 1 (CREB), cells in these mice can express luciferase, which can be measured in whole animal luminescence instrumentation (IVIS imager) after IV dosage with a luciferin formulated for animal use. Mice can be validated to express the transgene under proper response element control by dosing these mice with forskolin and rolipram, two drugs that stimulate neuronal cAMP production and inhibit its degradation (respectively). […]
Under conditions of elevated cyclic AMP (cAMP) or other mechanisms that activate the transcription factor CRE Binding Protein 1 (CREB), cells in these mice express luciferase, which are measured in whole animal luminescence instrumentation (IVIS imager) after IV dosage with a luciferin formulated for animal use. […]
Luminescence was measured in anesthetized mice on a Xenogen IVIS instrument with a 1 min exposure. […] For the test peptides for comparison, identical regions of interest encompassing the entire brain were draw and quantified using LivingImage software (version 4.0, PerkinElmer, FIG. 16). […]
Transgenic Mice were first dosed with luciferin and luminescence was measured (“unstimulated”).

With `COc1ccc(C2CNC(=O)C2)cc1OC1CCCC1` (stereo not shown) [rolipram] the “CRE-Luc brain luminescence, positive control” value was “high levels of luminescence”.
